Positions of bridges follow the written chain, without caps; N, C: chain ends. Residues, ends and D or L forms follow the SMILES beside them.
Columns and labels:
trypsin = trypsin (Sus scrofa, UniProt P00761); assay: Trypsin digestion resistance of soluble peptide, RP-HPLC; type: in vitro ADME, porcine; design: purchased Sigma Aldrich 6567; details: 500 U/ml trypsin, 30 minutes at 37.5° C.; HPLC peak vs untreated peptide
Experimental: (§1) Peptides were first suspended in 500 μl of ddH2O to a stock concentration of 2 mg/ml. Reactions were prepared by adding 12.5 μg of peptide from the stock solution to a 10 mM solution of DTT in PBS and allowed to incubate at room temperature for 30 minutes. Other reactions were prepared with 12.5 μg peptide and 500 U/ml trypsin in 25 mM Tris/75 mM NaCl buffer (pH 7.0) and incubated for 30 minutes at 37.5° C. These reactions were then quenched with 5 μg of soybean trypsin inhibitor (I) and, in some cases, 10 mM dithiothreitol (DTT). Reversed phase HPLC (RP-HPLC) was run on samples using an Agilent 1260 HPLC equipped with a C-18 Poroshell 120B column. Sample were analyzed by a gradient method with a mobile phase of Solvent A (water with 0.1% TFA) and Solvent B (acetonitrile with 0.1% TFA). Solvent B was ramped up from 5%-45% of the mobile phase over a period of 10 minutes. For testing pepsin digestion resistance, reactions were prepared with 12.5 μg peptide with or without 500 U/ml pepsin in simulated gastric fluid (SGF; pH 1.05; […] sodium chloride in 0.7% (v/v) hydrochloric acid) and were incubated for 30 minutes at 37.5° C. For testing temperature resistance, peptides were incubated at 70° C., 75° C., or 100° C. for one hour in 0.5 mM PBS, pelleted, and then the supernatant was analyzed by HPLC.
(§2) This example illustrates peptide stability in biological conditions including in the presence of reducing agents, proteases, oxidative conditions, acidic conditions, and simulated gastric fluids. […] Various peptides were suspended in 500 μl of ddH2O at a stock concentration of 2 mg/ml. This was then diluted in accord with the reaction conditions to prevent adverse buffering effects. Reactions were prepared with 12.5 μg peptide dissolved in solution and, in some samples, additionally suspended in a 10 mM solution of DTT, simulated gastric fluid (pH 1.05; […] sodium chloride in 0.7% (v/v) hydrochloric acid), 500 U pepsin (5000 U/ml pepsin), 50 U trypsin (500 U/ml trypsin) with 1 mg/ml inhibitor in PBS, or a combination of any of these conditions. All protease reactions were incubated for 30 min at room temperature and then quenched. Pepsin reactions were quenched by adding Tris base to a final concentration of 0.075 M. Trypsin reactions were quenched by adding excess soybean trypsin inhibitor. RP-HPLC was then run on samples using an Agilent 1260 HPLC equipped with a C-18 Poroshell 120B column. Sample were analyzed by a gradient method with a mobile phase of Solvent A (water with 0.1% TFA) and Solvent B (acetonitrile with 0.1% TFA). Solvent B was ramped up from 5%-45% of the mobile phase over a period of 10 minutes.
Soluble peptides were exposed to 500 U/mL porcine trypsin and analyzed by HPLC. Protease resistance was also assessed by using SDPR-displaying peptides. The SDPR vector is similar to the a surface display GFP FasL(SDGF) vector, but contains a C-terminal 6×His tag (SEQ ID NO: 180) and all basic or aromatic amino acid residues on the stalk removed. Protease resistance is then tested by incubation of cells displaying peptides with trypsin or chymotrypsin, followed by incubation in 10 mM DTT, and staining with an anti-6×His fluorophore-labeled antibody (“6×His” disclosed as SEQ ID NO: 180). If peptides are uncleaved, they retain the His tag and are stained with by the antibody. A control protease-sensitive knottin peptide (SK) was used as a positive control. Cells displaying peptides were treated with up to 40 μg/ml trypsin or chymotrypsin.
FIG. 21 illustrates high performance liquid chromatograph (HPLC) traces of peptides after trypsin digestion. […] The assay was carried out by reconstituting 1 mg porcine trypsin (Sigma Aldrich 6567) in 1 mL of 1 mM HCl. Trypsin was provided at a concentration of 10,000 u/mL and thus, 5 μl of stock solution was equivalent to using 50 U of trypsin in each reaction. Soybean trypsin inhibitor (SA T9128) was prepared at 1 mg/mL of in H2O. […]

pepsin = pepsin (Sus scrofa, UniProt P00791); assay: Pepsin digestion resistance in simulated gastric fluid, RP-HPLC; type: in vitro ADME, porcine; design: purchased Sigma Aldrich P7012; details: 500 U/ml pepsin in SGF pH 1.05, 30 minutes at 37.5° C.; HPLC peak vs untreated peptide
Experimental: Peptides were first suspended in 500 ul of ddH2O to a stock concentration of 2 mg/ml. Reactions were prepared by adding 12.5 ug of peptide from the stock solution to a 10 mM solution of DTT in PBS and allowed to incubate at room temperature for 30 minutes. Other reactions were prepared with 12.5 μg peptide with or without 500 U/ml pepsin in simulated gastric fluid (SGF; pH 1.05; […] sodium chloride in 0.7% (v/v) hydrochloric acid) and were incubated for 30 minutes at 37.5° C. Some reactions were quenched with a final concentration of 100 mM Tris base and 10 mM dithiothreitol (DTT). Some reactions were performed in all of the above components, including simulated gastric fluid, pepsin, Tris, and DTT (referred to as SPTD). Reversed phase HPLC (RP-HPLC) was run on samples using an Agilent 1260 HPLC equipped with a C-18 Poroshell 120B column. Sample were analyzed by a gradient method with a mobile phase of Solvent A (water with 0.1% TFA) and Solvent B (acetonitrile with 0.1% TFA). Solvent B was ramped up from 5%-45% of the mobile phase over a period of 10 minutes. Peptides were detected at an absorbance of 214 nm and 280 nm.
as §1, §2
FIG. 20 illustrates high performance liquid chromatograph (HPLC) traces of peptides after pepsin digestion. […]

Chain of pepsin (P00791 60-385): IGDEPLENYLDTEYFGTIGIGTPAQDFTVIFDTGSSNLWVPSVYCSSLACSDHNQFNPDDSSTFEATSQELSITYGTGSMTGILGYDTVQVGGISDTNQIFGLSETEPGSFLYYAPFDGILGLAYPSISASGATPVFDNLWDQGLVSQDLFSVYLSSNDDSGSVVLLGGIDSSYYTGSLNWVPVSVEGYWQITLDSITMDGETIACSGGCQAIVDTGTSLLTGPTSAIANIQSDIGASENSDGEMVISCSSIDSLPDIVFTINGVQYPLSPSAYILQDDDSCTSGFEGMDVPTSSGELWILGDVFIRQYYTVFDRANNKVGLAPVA
Chain of trypsin (P00761 9-231): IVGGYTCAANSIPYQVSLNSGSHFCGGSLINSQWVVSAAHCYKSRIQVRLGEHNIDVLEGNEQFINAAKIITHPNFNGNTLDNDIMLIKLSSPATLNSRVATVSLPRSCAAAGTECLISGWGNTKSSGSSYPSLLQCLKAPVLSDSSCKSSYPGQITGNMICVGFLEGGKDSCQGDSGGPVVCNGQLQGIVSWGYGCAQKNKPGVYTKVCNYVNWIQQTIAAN

CC[C@H](C)[C@@H]1NC(=O)[C@H](CCC(=O)O)NC(=O)[C@H](CCCNC(=N)N)NC(=O)[C@H](CCCNC(=N)N)NC(=O)[C@@H]2CSSC[C@@H](C(=O)N[C@@H](Cc3ccc(O)cc3)C(=O)N[C@@H](CCCNC(=N)N)C(=O)N[C@@H](CC(N)=O)C(=O)O)NC(=O)[C@H](C(C)C)NC(=O)[C@@H]3CSSC[C@H](NC(=O)[C@H](CO)NC(=O)CNC(=O)CNC(=O)[C@H](CCC(N)=O)NC(=O)[C@@H](NC(=O)[C@H](CCCCN)NC(=O)[C@@H](NC(=O)[C@H](CC(N)=O)NC(=O)[C@@H](NC(=O)[C@H](CCC(N)=O)NC(=O)[C@@H](NC(=O)[C@H](CCC(N)=O)NC(=O)[C@H](CO)NC(=O)CN)C(C)C)[C@@H](C)O)C(C)C)CSSC[C@H](NC(=O)[C@H](CCCCN)NC(=O)CNC(=O)[C@H](C)NC(=O)[C@H](C)NC(=O)[C@H](C(C)C)NC(=O)CNC1=O)C(=O)N[C@@H]([C@@H](C)CC)C(=O)N[C@@H](CC(N)=O)C(=O)NCC(=O)N[C@@H](CCCCN)C(=O)N3)C(=O)N[C@@H](C)C(=O)N[C@@H](CO)C(=O)N[C@@H](C(C)C)C(=O)N2 [compound 30] (H-GSQVQTNVKCQGGSCASVCRREIGVAAGKCINGKCVCYRN-OH; disulfide 10-30, 15-35, 19-37)
Resistance to Trypsin (500 U/ml) (trypsin): Low (A peptide classified as low indicates that the majority (over 75%) of the HPLC peak of the treated peptide disappeared as compared to the HPLC peak of the untreated peptide) | Resistance to Pepsin (500 U/ml) (pepsin): Moderate (A peptide classified as medium indicates that about half (between 25% and 75%) of the HPLC peak of the treated peptide disappeared as compared to the HPLC peak of the untreated peptide)

CC[C@H](C)[C@@H]1NC(=O)[C@@H]2CSSC[C@H](NC(=O)[C@H](CCCCN)NC(=O)[C@@H](NC(=O)[C@H](CC(N)=O)NC(=O)[C@@H](NC(=O)[C@@H]3CCCN3C(=O)[C@@H](NC(=O)CNC(=O)[C@H](CO)NC(=O)CN)C(C)C)[C@@H](C)CC)C(C)C)C(=O)N[C@@H](CCCNC(=N)N)C(=O)NCC(=O)N[C@@H](CO)C(=O)N[C@@H](CCCNC(=N)N)C(=O)N[C@@H](CC(=O)O)C(=O)N[C@H]3CSSC[C@H](NC(=O)[C@H](CCCCN)NC(=O)[C@H](CO)NC(=O)[C@H](CC(N)=O)NC1=O)C(=O)N[C@@H](Cc1c[nH]cn1)C(=O)N[C@H](C(=O)N[C@H](C(=O)N1CCC[C@H]1C(=O)O)[C@@H](C)O)CSSC[C@H](NC(=O)[C@@H]1CCCN1C(=O)[C@H](CC(=O)O)NC(=O)[C@H](CC(C)C)NC3=O)C(=O)N[C@@H](CCCCN)C(=O)N[C@@H](CCCCN)C(=O)N[C@@H](C)C(=O)NCC(=O)N[C@@H](CCSC)C(=O)N[C@@H](CCCNC(=N)N)C(=O)N[C@@H](Cc1ccccc1)C(=O)NCC(=O)N[C@@H](CCCCN)C(=O)N2 [compound 27] (H-GSGVPINVKCRGSRDCLDPCKKAGMRFGKCINSKCHCTP-OH; disulfide 10-30, 16-35, 20-37)
Resistance to Trypsin (500 U/ml) (trypsin): High (A peptide classified as high indicates that the majority (at least 75%) of the HPLC peak of the treated peptide is still present as compared to the HPLC peak of the untreated peptide) | Resistance to Pepsin (500 U/ml) (pepsin): High (A peptide classified as high indicates that the majority (at least 75%) of the HPLC peak of the treated peptide is still present as compared to the HPLC peak of the untreated peptide)

CC[C@H](C)[C@H](NC(=O)CNC(=O)[C@@H](NC(=O)[C@H](CO)NC(=O)[C@@H](NC(=O)[C@H](CO)NC(=O)CN)[C@@H](C)CC)[C@@H](C)CC)C(=O)N[C@@H](CCCCN)C(=O)N[C@H]1CSSC[C@@H]2NC(=O)[C@H](Cc3ccc(O)cc3)NC(=O)CNC(=O)[C@H]([C@@H](C)O)NC(=O)[C@H](Cc3ccccc3)NC(=O)[C@H](Cc3ccc(O)cc3)NC(=O)[C@H](CCCCN)NC(=O)[C@H](CCCNC(=N)N)NC(=O)[C@H]([C@@H](C)CC)NC(=O)[C@H](CCCNC(=N)N)NC(=O)[C@@H]3CSSC[C@@H](C(=O)N[C@@H](CO)C(=O)NCC(=O)O)NC(=O)[C@H](Cc4c[nH]cn4)NC(=O)[C@H](CSSC[C@H](NC(=O)[C@H](CC(C)C)NC(=O)[C@H](CC(=O)O)NC(=O)[C@H]([C@@H](C)CC)NC(=O)[C@H](CO)NC(=O)[C@@H]4CCCN4C(=O)[C@H](CO)NC1=O)C(=O)N[C@@H](CCC(=O)O)C(=O)NCC(=O)N[C@@H](CCC(N)=O)C(=O)N3)NC(=O)[C@H]([C@@H](C)O)NC(=O)[C@H](CC(=O)O)NC(=O)CNC(=O)[C@H](CO)NC2=O [compound 3] (H-GSISIGIKCSPSIDLCEGQCRIRKYFTGYCSGDTCHCSG-OH; disulfide 9-30, 16-35, 20-37)
Resistance to Trypsin (500 U/ml) (trypsin): Low (A peptide classified as low indicates that the majority (over 75%) of the HPLC peak of the treated peptide disappeared as compared to the HPLC peak of the untreated peptide) | Resistance to Pepsin (500 U/ml) (pepsin): Moderate (A peptide classified as medium indicates that about half (between 25% and 75%) of the HPLC peak of the treated peptide disappeared as compared to the HPLC peak of the untreated peptide)

CC[C@H](C)[C@@H]1NC(=O)[C@@H]2CSSC[C@H](NC(=O)[C@H](C)NC(=O)CNC(=O)[C@H](CCC(=O)O)NC(=O)[C@@H](NC(=O)[C@H](CCCCN)NC(=O)[C@H](Cc3ccccc3)NC(=O)[C@H](CC(N)=O)NC(=O)[C@H](CO)NC(=O)CN)C(C)C)C(=O)N[C@@H](CO)C(=O)N[C@@H](CCCCN)C(=O)N3CCC[C@H]3C(=O)N[C@H]3CSSC[C@H](NC(=O)[C@H](CCCNC(=N)N)NC(=O)CNC(=O)[C@H](CC(N)=O)NC1=O)C(=O)N[C@@H](Cc1c[nH]cn1)C(=O)N[C@H](C(=O)N[C@@H](Cc1ccc(O)cc1)C(=O)N[C@@H](Cc1ccc(O)cc1)C(=O)O)CSSC[C@H](NC(=O)[C@H](Cc1ccc(O)cc1)NC(=O)[C@H](CCCCN)NC(=O)[C@H](CCCNC(=N)N)NC3=O)C(=O)N[C@@H]([C@@H](C)CC)C(=O)N[C@@H](CC(=O)O)C(=O)N[C@@H](CCCCN)C(=O)NCC(=O)N[C@@H](C)C(=O)N[C@@H](CCCNC(=N)N)C(=O)N[C@@H](CC(N)=O)C(=O)NCC(=O)N[C@@H](CCCCN)C(=O)N2 [compound 5] (H-GSNFKVEGACSKPCRKYCIDKGARNGKCINGRCHCYY-OH; disulfide 10-28, 14-33, 18-35)
Resistance to Trypsin (500 U/ml) (trypsin): Moderate (A peptide classified as medium indicates that about half (between 25% and 75%) of the HPLC peak of the treated peptide disappeared as compared to the HPLC peak of the untreated peptide) | Resistance to Pepsin (500 U/ml) (pepsin): Moderate (A peptide classified as medium indicates that about half (between 25% and 75%) of the HPLC peak of the treated peptide disappeared as compared to the HPLC peak of the untreated peptide)

Source: patent US20190375786A1, “STABLE PEPTIDES AND METHODS OF USE THEREOF” (Fred Hutchinson Cancer Research Center, priority 2016, published 2019)
